Publication PMC11343776 (Clinical Pharmacokinetics, 2024)
“Also recorded” adds a separate entry of the source.

Key:
CYP3A4 = conditions: single dose capivasertib 80 mg; cited from earlier work
CYP3A = conditions: capivasertib 400 mg b.i.d., intermittent schedule; cited from earlier work
[1] = dose range 80–800 mg; cited from earlier work
[2] = healthy subjects; cited from earlier work
[3] = Population pharmacokinetic model of capivasertib plasma concentrations; assay type: in vivo, patients with advanced or metastatic solid tumours
ROCK1/2 = experiment: In vitro cellular kinase inhibition: ROCK1/2; assay type: cell-based
[4] = Model simulations and covariate assessment; parameters: species or system patients with advanced or metastatic solid tumours; conditions: for decrease of CL/F after approximately 120 h: multiple doses
[5] = 400 mg b.i.d. (4/3) after multiple doses
[6] = body weight 47 kg vs 67 kg reference

## NC1(C(=O)N[C@@H](CCO)c2ccc(Cl)cc2)CCN(c2nc[nH]c3nccc2-3)CC1 [capivasertib]
CYP3A4
  increase of capivasertib AUC by itraconazole: 95%
CYP3A
  increase in midazolam exposure: up to 75%
[1]
  dose proportionality of plasma exposure: approximately dose proportional
  terminal half-life (t½): approximately 10 hours
  terminal half-life (t½), range: 7 to 15 h
[2]
  renal clearance as share of total clearance: 21%
[3]; 400 mg b.i.d. (4/3)
  effective t½: 8.34 h
[3]; at 400 mg
  apparent volume of distribution at steady state: 255.6 L
[3]; final model estimate, semi-fasted or fed
  Lag1_tab absorption lag time for tablets: 0.21 h
[3]; oral
  fraction of dose absorbed by zero-order process: 20%
  fraction of dose absorbed using the first-order mechanism: 80%
[3]; slight variations with dose level, body weight, food status
  time to maximum concentration: 1.4 h
ROCK1/2
  inhibition of ROCK-mediated phosphorylation of cofilin: not effective
[4]; [5]
  median AUC12h,ss: 7.73 µg·h/mL
  median Cmax,ss: 1340 µg/L
[4]; 400 mg b.i.d.
  decrease of CL/F after approximately 120 h: 18%
[4]; 480 mg b.i.d.
  decrease of CL/F after approximately 120 h: 22%
[4]; 80–480 mg after multiple doses
  dose proportionality of AUC and Cmax: proportional; also recorded: approximately proportionally
[4]; beyond 480 mg after multiple doses
  dose proportionality of AUC and Cmax: more than proportional; also recorded: more than proportionally
[4]; [6]
  increase in AUC12h,ss: 14%
  increase in Cmax,ss: 14%
  reduction in CLss/F: 12%
[4]; body weight, dose, paclitaxel, food, formulation
  predicted impact of significant covariates on exposure to capivasertib: < 20%
[4]; concomitant paclitaxel vs no paclitaxel
  increase in CLss/F: 20%
[4]; simulations, three schedules, different dose levels
  time after which steady state is achieved: approximately 120 h
